Data on six compounds can be found in patent US10562900B2 (Shanghai Haihe Pharmaceutical Co., Ltd., priority 2014, dated 2020).

The subject of assay [1] is acute myelogenous leukemia cell strain KG1. As to the kind of experiment: Growth inhibition of FGFR1-dependent KG1 cells (CCK-8). It counts as cell-based. Particulars: Homo sapiens, KG-1, 72 h treatment. How it is done:
The growth inhibition of the acute myelogenous leukemia cell strain KG1 (FGFR1-dependent tumor cell strain; the FGFR1 fusion protein in the cell was expressed in the cytoplasm; purchased from ATCC cell bank) by the compounds was detected with CCK-8 cell count kit (Dojindo). The specific steps are as follows: KG1 cells in logarithmic growth phase were seeded onto a 96-well culture plate in appropriate density, 90 ul per well. After overnight culture, different concentrations of compounds were added and the treatment continued for 72 h, and solvent control group (negative control) was set. After treatment for 72 h, the effect of the compounds on cell proliferation was observed by CCK-8 cell counting kit (Dojindo). 10 μL of CCK-8 reagent was added to each well. After incubated for 2-4 hours in a 37 □ incubator, read with SpectraMax 190 microplate reader at 450 nm wavelength. The inhibition rate (%) of the compounds on tumor cell growth was calculated using the following formula: Inhibition rate (%)=(OD negative control well-OD administered well)/OD negative control well×100%.

Assay [2] concerns the target FGFR3 (Homo sapiens (Human), UniProt P22607). As to the kind of experiment: FGFR3 kinase activity at the molecular level (ELISA, Poly(Glu,Tyr) 4:1 substrate). It counts as biochemical. Particulars: kinase domain recombinant protein, 5 μM ATP. How it is done: (§1) 100 μL/well of 2 mg/mL OPD developing solution (diluted with 0.1M citric acid-sodium citrate buffer containing 0.03% H2O2 (pH=5.4)), and reacted in dark for 1-10 minutes at 25° C.
In general terms: In an ELISA, binding on a coated surface is turned into a signal by an enzyme label.

Assay [3] addresses FGFR2 (Homo sapiens (Human), UniProt P21802). As to the kind of experiment: FGFR2 kinase activity at the molecular level (ELISA, Poly(Glu,Tyr) 4:1 substrate). It counts as biochemical. Particulars: kinase domain recombinant protein, 5 μM ATP. The procedure:
as §1

Assay [4] has as its target FGFR1 (Homo sapiens (Human), UniProt P11362). As to the kind of experiment: FGFR1 kinase activity at the molecular level (ELISA, Poly(Glu,Tyr) 4:1 substrate). It counts as biochemical. Particulars: kinase domain recombinant protein, 5 μM ATP. How it is done:
as §1

Chain of FGFR1 (P11362 478-767): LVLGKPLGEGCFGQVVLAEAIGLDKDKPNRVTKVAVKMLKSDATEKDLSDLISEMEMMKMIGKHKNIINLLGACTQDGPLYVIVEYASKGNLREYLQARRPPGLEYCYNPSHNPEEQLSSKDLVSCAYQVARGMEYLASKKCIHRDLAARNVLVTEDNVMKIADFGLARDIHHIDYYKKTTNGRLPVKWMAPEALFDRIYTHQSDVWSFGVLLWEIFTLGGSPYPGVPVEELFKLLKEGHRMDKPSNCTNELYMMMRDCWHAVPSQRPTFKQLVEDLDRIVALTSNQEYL
Chain of FGFR2 (P21802 481-770): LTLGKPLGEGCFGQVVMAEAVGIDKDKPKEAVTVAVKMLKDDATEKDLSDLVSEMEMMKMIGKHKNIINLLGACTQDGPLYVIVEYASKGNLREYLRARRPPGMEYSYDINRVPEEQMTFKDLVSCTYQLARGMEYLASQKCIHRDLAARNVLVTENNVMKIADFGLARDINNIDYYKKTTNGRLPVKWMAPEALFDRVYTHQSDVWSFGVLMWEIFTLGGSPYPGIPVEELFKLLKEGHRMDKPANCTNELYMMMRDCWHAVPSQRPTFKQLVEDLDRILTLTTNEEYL
Chain of FGFR3 (P22607 472-761): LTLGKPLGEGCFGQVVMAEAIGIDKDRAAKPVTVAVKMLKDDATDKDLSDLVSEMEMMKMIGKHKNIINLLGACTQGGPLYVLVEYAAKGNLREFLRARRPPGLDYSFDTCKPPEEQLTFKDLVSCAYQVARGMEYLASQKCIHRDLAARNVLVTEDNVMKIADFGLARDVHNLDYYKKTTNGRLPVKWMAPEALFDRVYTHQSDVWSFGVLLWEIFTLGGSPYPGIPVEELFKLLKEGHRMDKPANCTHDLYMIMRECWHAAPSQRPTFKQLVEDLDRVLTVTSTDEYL

The IC50 is the concentration at which inhibition is half-maximal. Turning to `COc1cc(OC)c(Cl)c(-c2ccc3c(NC(=O)c4ccc(N5C[C@@H](C)N[C@@H](C)C5)cc4)n[nH]c3c2)c1Cl` [Example 14], the 50% inhibitory concentration (IC50) in assay [1] was < 200 nM.

Regarding `COc1cc(OC)c(Cl)c(-c2ccc3c(NC(=O)c4ccc(N5CCN(C)CC5)cc4)n[nH]c3c2)c1Cl` [Example 15, N-(6-(2,6-dichloro-3,5-dimethoxyphenyl)-1H-indazole-3-yl)-4-(4-methylpiperazine-1-yl)benzamide], the IC50 in assay [2] was < 100 nM; in assay [3], < 100 nM; in assay [4] it was < 100 nM; in assay [1], < 200 nM.

As to `COc1cc(OC)c(Cl)c(-c2ccc3c(NC(=O)c4ccc(CN5CCN(C)CC5)cc4)n[nH]c3c2)c1Cl` [Example 16, N-(6-(2,6-dichloro-3,5-dimethoxyphenyl)-1H-indazole-3-yl)-4-((4-methylpiperazine-1-yl)methyl)benzamide], the half-maximal inhibitory concentration (IC50) was < 100 nM in assay [2], < 100 nM in assay [3], < 100 nM in assay [4] and 200 to 1000 nM in assay [1].

In the case of `COc1cc(OC)c(Cl)c(-c2ccc3c(NC(=O)c4ccc(N5CCOCC5)cc4)n[nH]c3c2)c1Cl` [Example 17, N-(6-(2,6-dichloro-3,5-dimethoxyphenyl)-1H-indazole-3-yl)-4-morpholino benzamide], the IC50 in assay [2] was < 100 nM; in assay [3], < 100 nM; in assay [4], < 100 nM; in assay [1] it was 200 to 1000 nM.

Regarding `CCN1CCN(c2ccc(C(=O)Nc3n[nH]c4cc(-c5c(Cl)c(OC)cc(OC)c5Cl)ccc34)cc2)CC1` [Example 18, N-(6-(2,6-dichloro-3,5-dimethoxyphenyl)-1H-indazole-3-yl)-4-(4-ethylpiperazine-1-yl)benzamide], the IC50 in assay [2] is < 100 nM; in assay [3], < 100 nM; in assay [4] it was < 100 nM; in assay [1], < 200 nM.

In the case of `COc1cc(OC)c(Cl)c(-c2ccc3c(NC(=O)c4ccc(CN5CCN(C(C)=O)CC5)cc4)n[nH]c3c2)c1Cl` [Example 19, 4-((4-acetyl-1-yl)methyl)-N-(6-(2,6-dichloro-3,5-dimethoxyphenyl)-1H-indazole-3-yl)benzamide], the IC50 is < 100 nM in assay [2], < 100 nM in assay [3], < 100 nM in assay [4] and 200 to 1000 nM in assay [1].
